In ChEMBL document CHEMBL4038272, “Synthesis and biological evaluation of novel podophyllotoxin-NSAIDs conjugates as multifunctional anti-MDR agents against resistant human hepatocellular carcinoma Bel-7402/5-FU cells” (Eur J Med Chem, 2017):
The source made the active and inactive calls. No cut-off for these calls is given here.

Columns and labels:
Bel7402/5-FU [1] = experiment: Effect on cyclinA expression in human Bel7402/5-FU cells assessed as ratio of cyclinA to beta-actin level at 0.05 uM after 48 hrs by Western blot analysis (reference value: 0.39); format: functional
[2] = Resistant factor, ratio of IC50 for human Bel7402/5-FU cells to IC50 for human Bel7402 cells; format: functional
Bel7402/5-FU [3] = experiment: Effect on COX1 expression in human Bel7402/5-FU cells assessed as ratio of COX1 to beta-actin level at 0.05 uM after 48 hrs by Western blot analysis (reference value: 0.48); format: functional
[4] = target: Mitogen-activated protein kinase; ERK1/ERK2 (Homo sapiens) (UniProt P27361+P28482); experiment: Effect on ERK1/2 phosphorylation in human Bel7402/5-FU cells assessed as ratio of phosphorylated ERK1/2 to beta-actin level at 0.05 uM after 48 hrs by Western blot analysis (reference value: 0.59); format: cell-based
[5] = target: Signal transducer and activator of transcription 3 (Homo sapiens) (UniProt P40763); experiment: Effect on STAT3 phosphorylation in human Bel7402/5-FU cells assessed as ratio of phosphorylated STAT3 to beta-actin level at 0.05 uM after 48 hrs by Western blot analysis (reference value: 0.3); format: cell-based
Bel7402/5-FU [6] = experiment: Effect on CDK2 expression in human Bel7402/5-FU cells assessed as ratio of CDK2 to beta-actin level at 0.05 uM after 48 hrs by Western blot analysis (reference value: 0.43); format: functional
Bel7402/5-FU [7] = experiment: Induction of apoptosis in human Bel7402/5-FU cells assessed as live cells at 0.05 uM after 48 hrs by Annexin V-APC/7-AAD staining based flow cytometry (reference value: 91.08%); format: functional
Bel7402/5-FU [8] = experiment: Effect on COX2 expression in human Bel7402/5-FU cells assessed as ratio of COX2 to beta-actin level at 0.05 uM after 48 hrs by Western blot analysis (reference value: 0.36); format: functional
Bel7402/5-FU [9] = experiment: Induction of apoptosis in human Bel7402/5-FU cells assessed as ratio of cleaved PARP to beta-actin level at 0.05 uM after 48 hrs by Western blot analysis (reference value: 0.2); format: functional
Bel-7402 = experiment: Antiproliferative activity against human Bel7402 cells after 72 hrs by CCK-8 assay; format: functional, cell-based; settings: Bel-7402, 72 h
Bel7402/5-FU [10] = experiment: Induction of microtubule disruption in human Bel7402/5-FU cells at 0.05 uM after 24 to 48 hrs by DAPI staining based immunofluorescence microscopic method; format: functional, cell-based
Bel7402/5-FU [11] = experiment: Induction of apoptosis in human Bel7402/5-FU cells assessed as reduction in cell number at 0.05 uM after 24 hrs by Hoechst 33342 staining based fluorescent microscopic method; format: functional
Bel7402/5-FU [12] = experiment: Induction of apoptosis in human Bel7402/5-FU cells assessed as necrotic cells at 0.05 uM after 48 hrs by Annexin V-APC/7-AAD staining based flow cytometry (reference value: 0.58%); format: functional
Bel7402/5-FU [13] = experiment: Induction of apoptosis in human Bel7402/5-FU cells assessed as late apoptotic cells at 0.05 uM after 48 hrs by Annexin V-APC/7-AAD staining based flow cytometry (reference value: 3%); format: functional
Bel7402/5-FU [14] = experiment: Induction of apoptosis in human Bel7402/5-FU cells assessed as ratio of cleaved caspase-8 to beta-actin level at 0.05 uM after 48 hrs by Western blot analysis (reference value: 0.17); format: functional
Bel7402/5-FU [15] = experiment: Induction of apoptosis in human Bel7402/5-FU cells at 0.05 uM after 24 hrs by Hoechst 33342 staining based fluorescent microscopic method; format: functional, cell-based
Bel7402/5-FU [16] = experiment: Effect on P-gp expression in human Bel7402/5-FU cells assessed as ratio of P-gp to beta-actin level at 0.05 uM after 48 hrs by Western blot analysis (reference value: 0.59); format: functional
Bel7402/5-FU [17] = experiment: Reduction in microtubule density in human Bel7402/5-FU cells at 0.05 uM after 24 to 48 hrs by DAPI staining based immunofluorescence microscopic method; format: functional, cell-based
Bel7402/5-FU [18] = experiment: Effect on MMP2 expression in human Bel7402/5-FU cells assessed as ratio of MMP2 to beta-actin level at 0.05 uM after 48 hrs by Western blot analysis (reference value: 0.3); format: functional
Bel7402/5-FU [19] = experiment: Cell cycle arrest in human Bel7402/5-FU cells assessed as accumulation at S phase at 0.05 uM after 48 hrs by propidium iodide staining based flow cytometry (reference value: 12.62%); format: functional
[20] = target: RAC-alpha serine/threonine-protein kinase (Homo sapiens) (UniProt P31749); experiment: Effect on AKT phosphorylation in human Bel7402/5-FU cells assessed as ratio of phosphorylated AKT to beta-actin level at 0.05 uM after 48 hrs by Western blot analysis (reference value: 0.39); format: cell-based
Bel7402/5-FU [21] = experiment: Effect on MRP1 expression in human Bel7402/5-FU cells assessed as ratio of MRP1 to beta-actin level at 0.05 uM after 48 hrs by Western blot analysis (reference value: 0.58); format: functional
Bel7402/5-FU [22] = experiment: Effect on cyclinB1 expression in human Bel7402/5-FU cells assessed as ratio of cyclinB1 to beta-actin level at 0.05 uM after 48 hrs by Western blot analysis (reference value: 0.53); format: functional
Bel7402/5-FU [23] = experiment: Effect on VEGFR2 expression in human Bel7402/5-FU cells assessed as ratio of VEGFR2 to beta-actin level at 0.05 uM after 48 hrs by Western blot analysis (reference value: 0.25); format: functional
Bel7402/5-FU [24] = experiment: Cell cycle arrest in human Bel7402/5-FU cells assessed as accumulation at G1 phase at 0.05 uM after 48 hrs by propidium iodide staining based flow cytometry (reference value: 52.21%); format: functional
Bel7402/5-FU [25] = experiment: Effect on CDK1 expression in human Bel7402/5-FU cells assessed as ratio of CDK1 to beta-actin level at 0.05 uM after 48 hrs by Western blot analysis (reference value: 0.33); format: functional
Bel7402/5-FU [26] = experiment: Induction of apoptosis in human Bel7402/5-FU cells assessed as early apoptotic cells at 0.05 uM after 48 hrs by Annexin V-APC/7-AAD staining based flow cytometry (reference value: 5.24%); format: functional
Bel7402/5-FU [27] = experiment: Induction of apoptosis in human Bel7402/5-FU cells assessed as morphological changes at 0.05 uM after 24 hrs by Hoechst 33342 staining based fluorescent microscopic method; format: functional, cell-based
Bel7402/5-FU [28] = experiment: Induction of apoptosis in human Bel7402/5-FU cells assessed as condensed nuclei at 0.05 uM after 24 hrs by Hoechst 33342 staining based fluorescent microscopic method; format: functional, cell-based
Bel7402/5-FU [29] = experiment: Induction of apoptosis in human Bel7402/5-FU cells assessed as ratio of cleaved caspase-3 to beta-actin level at 0.05 uM after 48 hrs by Western blot analysis (reference value: 0.19); format: functional
Bel7402/5-FU [30] = experiment: Cell cycle arrest in human Bel7402/5-FU cells assessed as accumulation at G2 phase at 0.05 uM after 48 hrs by propidium iodide staining based flow cytometry (reference value: 35.16%); format: functional
Bel7402/5-FU [31] = experiment: Effect on iNOS expression in human Bel7402/5-FU cells assessed as ratio of iNOS to beta-actin level at 0.05 uM after 48 hrs by Western blot analysis (reference value: 0.13); format: functional
Bel7402/5-FU [32] = experiment: Antiproliferative activity against human Bel7402/5-FU cells after 72 hrs by CCK-8 assay; format: functional, cell-based
L02 = experiment: Antiproliferative activity against human LO2 cells after 72 hrs by CCK-8 assay; format: cell-based; settings: L02, 72 h
Bel7402/5-FU [33] = experiment: Effect on E-cadherin expression in human Bel7402/5-FU cells assessed as ratio of E-cadherin to beta-actin level at 0.05 uM after 48 hrs by Western blot analysis (reference value: 0.2); format: functional
Bel7402/5-FU [34] = experiment: Antimigratory activity in human Bel7402/5-FU cells at 0.05 uM after 24 hrs by wound healing assay; format: functional, cell-based
Bel7402/5-FU [35] = experiment: Induction of apoptosis in human Bel7402/5-FU cells assessed as ratio of cleaved caspase-9 to beta-actin level at 0.05 uM after 48 hrs by Western blot analysis (reference value: 0.17); format: functional

RAC-alpha serine/threonine-protein kinase (Homo sapiens), sequence (P31749 whole entry): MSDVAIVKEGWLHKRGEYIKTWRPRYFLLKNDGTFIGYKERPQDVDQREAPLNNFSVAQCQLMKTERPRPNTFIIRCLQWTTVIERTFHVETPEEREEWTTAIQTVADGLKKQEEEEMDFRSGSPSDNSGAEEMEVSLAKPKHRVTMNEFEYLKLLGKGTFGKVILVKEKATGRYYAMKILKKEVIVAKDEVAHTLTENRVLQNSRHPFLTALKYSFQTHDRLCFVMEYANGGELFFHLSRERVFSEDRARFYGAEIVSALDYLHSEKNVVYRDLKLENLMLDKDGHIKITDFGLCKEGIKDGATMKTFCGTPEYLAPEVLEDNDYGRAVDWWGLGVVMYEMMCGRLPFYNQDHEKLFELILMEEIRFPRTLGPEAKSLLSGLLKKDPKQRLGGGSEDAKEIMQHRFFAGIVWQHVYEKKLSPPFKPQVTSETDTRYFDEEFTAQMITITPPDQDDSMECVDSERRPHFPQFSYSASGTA
Mitogen-activated protein kinase; ERK1/ERK2 (Homo sapiens), sequence (P27361 whole entry, looked up): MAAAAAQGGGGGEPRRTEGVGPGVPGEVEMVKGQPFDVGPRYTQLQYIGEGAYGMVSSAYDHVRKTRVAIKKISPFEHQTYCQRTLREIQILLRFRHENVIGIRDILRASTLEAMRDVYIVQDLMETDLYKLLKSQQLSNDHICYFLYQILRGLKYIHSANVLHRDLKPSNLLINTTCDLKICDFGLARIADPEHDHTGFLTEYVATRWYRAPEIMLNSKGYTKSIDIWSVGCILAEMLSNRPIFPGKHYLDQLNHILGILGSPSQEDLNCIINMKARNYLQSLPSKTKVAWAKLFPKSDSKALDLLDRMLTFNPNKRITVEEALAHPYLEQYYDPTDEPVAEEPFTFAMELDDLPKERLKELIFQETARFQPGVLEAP
Mitogen-activated protein kinase; ERK1/ERK2 (Homo sapiens), sequence (P28482 whole entry, looked up): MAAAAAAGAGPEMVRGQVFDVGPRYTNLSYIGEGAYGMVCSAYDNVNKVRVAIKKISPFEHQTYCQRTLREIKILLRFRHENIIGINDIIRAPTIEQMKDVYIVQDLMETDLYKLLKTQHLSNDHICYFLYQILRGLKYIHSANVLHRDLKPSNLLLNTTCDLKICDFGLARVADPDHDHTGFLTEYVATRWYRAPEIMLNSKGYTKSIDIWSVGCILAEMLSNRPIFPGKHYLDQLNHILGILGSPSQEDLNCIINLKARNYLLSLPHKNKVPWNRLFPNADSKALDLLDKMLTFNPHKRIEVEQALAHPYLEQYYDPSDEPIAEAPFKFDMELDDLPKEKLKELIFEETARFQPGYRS
Signal transducer and activator of transcription 3 (Homo sapiens), sequence (P40763 whole entry): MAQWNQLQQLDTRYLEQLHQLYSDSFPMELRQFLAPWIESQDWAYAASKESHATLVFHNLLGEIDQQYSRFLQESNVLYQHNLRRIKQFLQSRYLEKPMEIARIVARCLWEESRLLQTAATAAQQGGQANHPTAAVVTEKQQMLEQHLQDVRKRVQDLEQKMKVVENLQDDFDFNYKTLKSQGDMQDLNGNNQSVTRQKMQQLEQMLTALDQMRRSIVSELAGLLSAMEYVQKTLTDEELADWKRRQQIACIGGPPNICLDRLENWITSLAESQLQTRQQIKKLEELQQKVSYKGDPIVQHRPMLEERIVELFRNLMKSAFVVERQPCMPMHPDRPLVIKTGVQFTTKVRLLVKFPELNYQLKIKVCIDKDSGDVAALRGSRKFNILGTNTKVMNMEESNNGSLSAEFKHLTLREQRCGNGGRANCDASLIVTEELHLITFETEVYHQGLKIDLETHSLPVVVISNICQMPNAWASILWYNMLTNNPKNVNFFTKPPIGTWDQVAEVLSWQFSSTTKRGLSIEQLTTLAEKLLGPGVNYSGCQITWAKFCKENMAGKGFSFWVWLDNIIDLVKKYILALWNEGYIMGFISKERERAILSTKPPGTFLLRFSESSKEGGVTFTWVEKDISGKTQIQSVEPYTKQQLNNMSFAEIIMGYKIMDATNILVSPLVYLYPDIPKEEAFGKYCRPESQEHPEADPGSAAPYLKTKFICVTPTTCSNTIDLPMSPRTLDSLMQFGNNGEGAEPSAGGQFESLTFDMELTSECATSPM

COc1cc([C@@H]2c3cc4c(cc3[C@H](O)[C@H]3COC(=O)[C@H]23)OCO4)cc(OC)c1OC [PODOFILOX]
Ratio (Bel7402/5-FU [1]): 0.27 | Ratio IC50 [2]: 0.84 | Ratio (Bel7402/5-FU [3]): 0.43 | Ratio [4]: 0.38 | Ratio [5]: 0.41 | Ratio (Bel7402/5-FU [6]): 0.29 | Activity (Bel7402/5-FU [7]): 63.7% | Ratio (Bel7402/5-FU [8]): 0.39 | Ratio (Bel7402/5-FU [9]): 0.38 | IC50 (Bel-7402): 52 nM | Activity (Bel7402/5-FU [10]): Active | Activity (Bel7402/5-FU [11]): Active | Activity (Bel7402/5-FU [12]): 4.65% | Activity (Bel7402/5-FU [13]): 23.17% | Ratio (Bel7402/5-FU [14]): 0.26 | Activity (Bel7402/5-FU [15]): Active | Ratio (Bel7402/5-FU [16]): 0.49 | Activity (Bel7402/5-FU [17]): Active | Ratio (Bel7402/5-FU [18]): 0.13 | Activity (Bel7402/5-FU [19]): 9.1% | Ratio [20]: 0.35 | Ratio (Bel7402/5-FU [21]): 0.52 | Ratio (Bel7402/5-FU [22]): 0.41 | Ratio (Bel7402/5-FU [23]): 0.22 | Activity (Bel7402/5-FU [24]): 17.28% | Ratio (Bel7402/5-FU [25]): 0.33 | Activity (Bel7402/5-FU [26]): 8.48% | Activity (Bel7402/5-FU [27]): Active | Activity (Bel7402/5-FU [28]): Active | Ratio (Bel7402/5-FU [29]): 0.27 | Activity (Bel7402/5-FU [30]): 73.62% | Ratio (Bel7402/5-FU [31]): 0.18 | IC50 (Bel7402/5-FU [32]): 44 nM | IC50 (L02): 22 nM | Ratio (Bel7402/5-FU [33]): 0.28 | Activity (Bel7402/5-FU [34]): Active | Ratio (Bel7402/5-FU [35]): 0.26
